Structures are written as SMILES. Some results are limits rather than exact numbers.

One assay deals with LPS-induced IL-6 release level from THP-1 cells. Description: Test of IL-6 release from THP-1 cells (LPS-induced, IL-6 in supernatant detected by CBA). Format: cell-based. The settings on record: Homo sapiens, THP-1, 24 h, read-out: Inhibition rate @ 10 uM. The procedure:
Test of IL-6 Release from THP-1 Cells
The inhibitory effect of the compound on LPS-induced IL-6 release level from THP-1 cells was evaluated by measuring the level of IL-6 in the cell culture supernatant.
4 ul was taken from each above solution and added to lml of culture solution to make 120 uM, 40 uM, 12 uM, 4 uM. 50 ul per well was taken and added to wells with cells to give final concentrations of 30 uM, 10 uM, 3 uM, and 1 uM, respectively. Dexamethasone was added as a positive drug into an individual cell well with a final concentration of 100 nM. • c) Cell stimulation
The LPS 1 mg/ml solution was diluted to 800 ng/ml with the culture solution and added to the cell culture wells at 50 ul/well. • d) Cell incubation and detection
The cell culture plate was placed in a 37° C. incubator, and the supernatant was collected after culturing for 24 hours. The level of IL-6 in the supernatant was detected by CBA.
As to `C=C1CCC2[C@]3(C)CO[C@@H](C4CCCC4)O[C@@H]3CC[C@@]2(C)[C@@H]1CCn1cc(C(=O)O)ccc1=O` (stereo partly drawn) [Compound 457, 1-(2-((3R,4aR,6aS,7R,10bR)-3-cyclopentyl-6a,10b-dimethyl-8-dihydromethylene-1H-naphtho[2,1-d][1,3]dioxin-7-yl)ethyl)-6-oxo-1,6-dihydropyridine-3-carboxylic acid], the inhibition at 10 µM is more than 60%.

In the case of `C=C1CCC2[C@]3(C)CO[C@@H](C4CCCC4)O[C@@H]3CC[C@@]2(C)[C@@H]1CCNc1ccncc1F` (stereo partly drawn) [Compound 345, N-(2-((3R,4aR,6aS,7R,10bR)-3-cyclopentyl-6a,10b-dimethyl-8-decahydromethylene-1H-naphtho[2,1-d][1,3]dioxin-7-yl)ethyl)-3-fluoropyridin-4-amine], the inhibition at 10 µM is 30 to 60%.

On to `C=C1CCC2[C@]3(C)CO[C@@H](C4CCCC4)O[C@@H]3CC[C@@]2(C)[C@@H]1CCOC1CN(C(C)C)C1` (stereo partly drawn) [Compound 313, 3-(2-((3R,4aR,6aS,7R,10bR)-3-cyclopentyl-6a,10b-dimethyl-8-dihydromethylenedecahydro-1H-naphtho[2,1-d][1,3]dioxin-7-yl)ethoxy)-1-isopropyl azetidine], for which the inhibition at 10 µM lay in the range of 30 to 60%.

`C=C1CCC2[C@]3(C)CO[C@@H](C4CCCC4)O[C@@H]3CC[C@@]2(C)[C@@H]1CCOc1ccncn1` (stereo partly drawn) [Compound 312, 4-(2-((3R,4aR,6aS,7R,10bR)-3-cyclopentyl-6a,10b-dimethyl-8-dihydromethylenedecahydro-1H-naphtho[2,1-d][1,3]dioxin-7-yl)ethoxy)pyrimidine]: the inhibition at 10 µM was less than 30%.

With `C=C1CCC2[C@]3(C)CO[C@@H](C4CCCC4)O[C@@H]3CC[C@@]2(C)[C@@H]1CCOc1cncc(C(=O)O)c1` (stereo partly drawn) [Compound 406, 5-(2-((3R,4aR,6aS,7R,10bR)-3-cyclopentyl-6a,10b-dimethyl-8-dihydromethylenedecahydro-1H-naphtho[2,1-d][1,3]dioxin-7-yl)ethoxy)nicotinic acid], the inhibition at 10 µM was less than 30%.

The assay is the same for the next values; noted with them: Homo sapiens; inflammatory factor IL-6 detected by CBA; compound 10 uM; LPS-stimulated THP-1 cells, supernatant after 24 hours; read-out: Inhibition rate @ 10 uM.
As to `C=C1CCC2[C@]3(C)CO[C@@H](C4CCCC4)O[C@@H]3CC[C@@]2(C)[C@@H]1CCN1CCC(N(CC)CC)CC1` (stereo partly drawn) [Compound 150, 1-(2-((4aR,6aS,7R,10bR)-3-cyclopentyl-6a,10b-dimethyl-8-methylene-decahydro-1H-naphtho[2,1-d][1,3]dioxin-7-yl)ethyl)-N,N-diethylpiperidin-4-amine], the inhibition at 10 µM was 30 to 60%.

Turning to `C=C1CCC2[C@]3(C)CO[C@@H](C4CCCC4)O[C@@H]3CC[C@@]2(C)[C@@H]1CCN(CCO)CCCN(C)C` (stereo partly drawn) [Compound 284, 2-((2-((3R,4aR,6aS,7R,10bR)-3-cyclopentyl-6a, 10b-dimethyl-8-methylene-decahydro-1H-naphtho[2,1-d][1,3]dioxin-7-yl)ethyl)(3-(dimethylamino)propyl)amino)ethanol], the inhibition at 10 µM lay within 30 to 60%.

`C=C1CCC2[C@]3(C)CO[C@@H](C4CCCC4)O[C@@H]3CC[C@@]2(C)[C@@H]1CCOc1ccncc1C#N` (stereo partly drawn) [Compound 349, 4-(2-((3R,4aR,6aS,7R,10bR)-3-cyclopentyl-6a,10b-dimethyl-8-dihydromethylenedecahydro-1H-naphtho[2,1-d][1,3]dioxin-7-yl)ethoxy)cyanopyridine]: the inhibition at 10 µM was more than 60%.

On to `C=C1CCC2[C@]3(C)CO[C@@H](C4CCCC4)O[C@@H]3CC[C@@]2(C)[C@@H]1CCOc1cc(F)ccc1C(=O)O` (stereo partly drawn) [Compound 441, 2-(2-((3R,4aR,6aS,7R,10bR)-3-cyclopentyl-6a,10b-dimethyl-8-dihydromethylenedecahydro-1H-naphtho[2,1-d][1,3]dioxin-7-yl)ethoxy)-4-fluorobenzoic acid], for which the inhibition at 10 µM lay in the range of 30 to 60%.

For the compound `C=C1CCC2[C@]3(C)CO[C@@H](C4CCCC4)O[C@@H]3CC[C@@]2(C)[C@@H]1CCOc1cccc(C(=O)O)c1` (stereo partly drawn) [Compound 423, 3-(2-((3R,4aR,6aS,7R,10bR)-3-cyclopentyl-6a,10b-dimethyl-8-dihydromethylenedecahydro-1H-naphtho[2,1-d][1,3]dioxin-7-yl)ethoxy)benzoic acid], the inhibition at 10 µM is 30 to 60%.

Turning to `C=C1CCC2[C@]3(C)CO[C@@H](c4ccc(F)c(F)c4)O[C@@H]3CC[C@@]2(C)[C@@H]1CCN1CCN(C)C1=O` (stereo partly drawn) [Compound 212, 3-(2-((3R,4aR,6aS,7R,10bR)-3-(3,4-difluorophenyl)-6a,10b-dimethyl-8-decahydromethylene-1H-naphtho[2,1-d][1,3]dioxin-7-yl)ethyl)-1-methyltetrahydroimidazol-2-one], the inhibition at 10 µM was more than 60%.

As for `C=C1CCC2[C@]3(C)CO[C@@H](C4CCCC4)O[C@@H]3CC[C@@]2(C)[C@@H]1CCOc1ccnc(C)c1` (stereo partly drawn) [Compound 319, 4-(2-((3R,4aR,6aS,7R,10bR)-3-cyclopentyl-6a,10b-dimethyl-8-dihydromethylenedecahydro-1H-naphtho[2,1-d][1,3]dioxin-7-yl)ethoxy)-2-methylpyridine], the inhibition at 10 µM lay in the range of 30 to 60%.

`C=C1CCC2[C@]3(C)CO[C@@H](C4CCCC4)O[C@@H]3CC[C@@]2(C)[C@@H]1CCOc1ccc(C(=O)O)nc1` (stereo partly drawn) [Compound 432, 5-(2-((3R,4aR,6aS,7R,10bR)-3-cyclopentyl-6a,10b-dimethyl-8-dihydromethylenedecahydro-1H-naphtho[2,1-d][1,3]dioxin-7-yl)ethoxy)-2-picolinic acid]: the inhibition at 10 µM is more than 60%.

Turning to `C=C1CCC2[C@]3(C)CO[C@@H](C4CCCC4)O[C@@H]3CC[C@@]2(C)[C@@H]1CCN1CCC2(CCN(C)CC2)C1` (stereo partly shown) [Compound 181], the inhibition at 10 µM is less than 30%.

As for `C=C1CCC2[C@]3(C)CO[C@@H](C4CCCC4)O[C@@H]3CC[C@@]2(C)[C@@H]1CCOc1ccc(C(=O)O)cc1` (stereo partly drawn) [Compound 422, 4-(2-((3R,4aR,6aS,7R,10bR)-3-cyclopentyl-6a,10b-dimethyl-8-dihydromethylenedecahydro-1H-naphtho[2,1-d][1,3]dioxin-7-yl)ethoxy)benzoic acid], the inhibition at 10 µM lay within 30 to 60%.

Consider `C=C1CCC2[C@]3(C)CO[C@@H](C(C)C)O[C@@H]3CC[C@@]2(C)[C@@H]1CCOc1ccncc1` (stereo partly drawn) [Compound 411, 4-(2-((3R,4aR,6aS,7R,10bR)-3-isopropyl-6a,10b-dimethyl-8-dihydromethylenedecahydro-1H-naphtho[2,1-d][1,3]dioxin-7-yl)ethoxy)pyridine], for which the inhibition at 10 µM is more than 60%.

As for `C=C1CCC2[C@]3(C)CO[C@@H](C4CCCC4)O[C@@H]3CC[C@@]2(C)[C@@H]1CCOc1cc[nH]c(=O)c1` (stereo partly drawn) [Compound 430, 4-(2-((3R,4aR,6aS,7R,10bR)-3-cyclopentyl-6a,10b-dimethyl-8-dihydromethylenedecahydro-1H-naphtho[2,1-d][1,3]dioxin-7-yl)ethoxy)pyridin-2(1H)-one], the inhibition at 10 µM was 30 to 60%.

Turning to `C=C1CCC2[C@]3(C)CO[C@@H](C4CCCC4)O[C@@H]3CC[C@@]2(C)[C@@H]1CCOc1ccccn1` (stereo partly drawn) [Compound 317, 2-(2-((3R,4aR,6aS,7R,10bR)-3-cyclopentyl-6a,10b-dimethyl-8-dihydromethylenedecahydro-1H-naphtho[2,1-d][1,3]dioxin-7-yl)ethoxy) pyridine], the inhibition at 10 µM was more than 60%.

`C=C1CCC2[C@]3(C)CO[C@@H](C4CCCC4)O[C@@H]3CC[C@@]2(C)[C@@H]1CCNCC(=O)O` (stereo partly drawn) [Compound 403, 2-((2-((3R,4aR,6aS,7R,10bR)-3-cyclopentyl-6a,10b-dimethyl-8-methylenedecahydro-1H-naphtho[2,1-d][1,3]dioxin-7-yl)ethyl)amino)acetic acid]: the inhibition at 10 µM was less than 30%.

With `C=C1CCC2[C@]3(C)CO[C@@H](C4CCCC4)O[C@@H]3CC[C@@]2(C)[C@@H]1CCOc1ncccc1C(=O)O` (stereo partly drawn) [Compound 436, 2-(2-((3R,4aR,6aS,7R,10bR)-3-cyclopentyl-6a,10b-dimethyl-8-dihydromethylenedecahydro-1H-naphtho[2,1-d][1,3]dioxin-7-yl)ethoxy)nicotinic acid], the inhibition at 10 µM was less than 30%.

Regarding `C=C1CCC2[C@]3(C)CO[C@@H](C4CCCC4)O[C@@H]3CC[C@@]2(C)[C@@H]1CCOc1c(C(=O)O)cncc1C(=O)O` (stereo partly drawn) [Compound 417, 4-(2-((3R,4aR,6aS,7R,10bR)-3-cyclopentyl-6a,10b-dimethyl-8-dihydromethylenedecahydro-1H-naphtho[2,1-d][1,3]dioxin-7-yl)ethoxy)pyridine-3,5-dicarboxylic acid], the inhibition at 10 µM was less than 30%.

For the compound `C=C1CCC2[C@]3(C)CO[C@@H](C4CC4)O[C@@H]3CC[C@@]2(C)[C@@H]1CCOc1ccncc1` (stereo partly drawn) [Compound 400, 4-(2-((3R,4aR,6aS,7R,10bR)-3-cyclopropyl-6a,10b-dimethyl-8-dihydromethylenedecahydro-1H-naphtho[2,1-d][1,3]dioxin-7-yl)ethoxy)pyridine], the inhibition at 10 µM is more than 60%.

Turning to `C=C1CCC2[C@]3(C)CO[C@@H](C4CCCC4)O[C@@H]3CC[C@@]2(C)[C@@H]1CCN1CC(CO)C1` (stereo partly shown) [Compound 355], the inhibition at 10 µM is less than 30%.

With `C=C1CCC2[C@]3(C)CO[C@@H](C4CCCC4)O[C@@H]3CC[C@@]2(C)[C@@H]1CCn1cc(C(=O)O)cn1` (stereo partly drawn) [Compound 458, 1-(2-((3R,4aR,6aS,7R,10bR)-3-cyclopentyl-6a,10b-dimethyl-8-dihydromethylene-1H-naphtho[2,1-d][1,3]dioxin-7-yl)ethyl)-1H-pyrazole-4-carboxylic acid], the inhibition at 10 µM lay in the range of 30 to 60%.

For `C=C1CCC2[C@]3(C)CO[C@@H](C4CCCC4)O[C@@H]3CC[C@@]2(C)[C@@H]1CCN1CCC(CO)CC1` (stereo partly drawn) [Compound 002, (1-(2-((3R,4aR,6aS,7R,10bR)-3-cyclopentyl-6a,10b-dimethyl-8-methylene-decahydro-1H-naphtho[2,1-d][1,3]dioxin-7-yl)ethyl)piperidin-4-yl)methanol], the inhibition at 10 µM was less than 30%.

Source of the values: patent publication US10717720B2, “Modified compound of andrographolide” (Heilongjiang Zhenbaodao Pharmaceutical Co., Ltd., priority 2015, dated 2020).
